Data from PubChem BioAssay (NCI).
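Exposure lasted 48 hours, with cells grown in 96-well plates and compounds tested at five concentrations. GI50: concentration for 50% inhibition of growth. Definition used: TGI = concentration required for complete inhibition of growth.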

Experiments:
Test in all cases: NCI tumour cell line growth inhibition, 48 h; in the data active = GI50 below about 0.43 µM; inactive = the rest
[1] = test system: NCI-H522 lung
[2] = test system: OVCAR-4 ovarian
[3] = test system: A549 NSCLC
[4] = test system: OVCAR-5 ovarian
[5] = test system: P388/ADR leukemia
[6] = test system: HL-60(TB) leukemia
[7] = test system: NCI-H226 lung
[8] = test system: SNB-78 CNS
[9] = test system: MALME-3M melanoma
[10] = test system: HT29 colon
[11] = test system: UACC-257 melanoma
[12] = test system: CAKI-1 renal
[13] = test system: SW-620 colon
[14] = test system: KM12 colon
[15] = test system: SN12C renal
[16] = test system: NCI-H23 lung
[17] = test system: UACC-62 melanoma
[18] = test system: A498 renal
[19] = test system: EKVX NSCLC
[20] = test system: OVCAR-3 ovarian
[21] = test system: NCI/ADR-RES ovarian
[22] = test system: MOLT-4 leukemia
[23] = test system: SF-268 CNS
[24] = test system: IGROV1 ovarian
[25] = test system: HOP-92 NSCLC
[26] = test system: M19-MEL melanoma
[27] = test system: CCRF-CEM leukemia
[28] = test system: HOP-62 NSCLC
[29] = test system: SF-539 CNS
[30] = test system: SK-OV-3 ovarian
[31] = test system: U251 CNS
[32] = test system: NCI-H460 lung
[33] = test system: RXF 393 renal
[34] = test system: SN12K1 renal
[35] = test system: HOP-18 NSCLC
[36] = test system: DLD-1 colon
[37] = test system: KM20L2 colon
[38] = test system: HCT-116 colon
[39] = test system: SK-MEL-2 melanoma
[40] = test system: OVCAR-8 ovarian
[41] = test system: HCC-2998 colon
[42] = test system: SK-MEL-5 melanoma
[43] = test system: SK-MEL-28 melanoma
[44] = test system: K-562 leukemia
[45] = test system: UO-31 renal
[46] = test system: COLO 205 colon
[47] = test system: HCT-15 colon
[48] = test system: LOX IMVI melanoma
[49] = test system: RPMI-8226 leukemia
[50] = test system: SNB-75 CNS
[51] = test system: MCF7 breast
[52] = test system: SF-295 CNS
[53] = test system: SNB-19 CNS
[54] = test system: P388 leukemia

CS(=O)(=O)[O-].CS(=O)(=O)[O-].NC1CCCCC1N.[Pt+4] (stereo not drawn)
inactive: GI50 [1] > 71.1 µM | GI50 [2] > 100 µM | GI50 [3] 80.3 µM | GI50 [4] > 100 µM | GI50 [5] 43 µM | GI50 [6] 33.5 µM | GI50 [7] 39.2 µM | GI50 [8] > 100 µM | GI50 [9] > 100 µM | GI50 [10] 62.3 µM | GI50 [11] > 100 µM | GI50 [12] 41.8 µM | GI50 [13] 13 µM | GI50 [14] > 100 µM | GI50 [15] > 84.7 µM | GI50 [16] 88 µM | GI50 [17] > 100 µM | GI50 [18] > 100 µM | GI50 [19] > 100 µM | GI50 [20] > 100 µM | GI50 [21] > 55.2 µM | GI50 [22] 29 µM | GI50 [23] > 65.9 µM | GI50 [24] > 69.4 µM | GI50 [25] > 100 µM | GI50 [26] 34.2 µM | GI50 [27] 40.2 µM | GI50 [28] > 100 µM | GI50 [29] > 100 µM | GI50 [30] > 100 µM | GI50 [31] > 87.2 µM | GI50 [32] 47.2 µM | GI50 [33] > 100 µM | GI50 [34] > 100 µM | GI50 [35] > 100 µM | GI50 [36] > 100 µM | GI50 [37] > 51.3 µM | GI50 [38] 37.4 µM | GI50 [39] > 100 µM | GI50 [40] > 74 µM | GI50 [41] > 100 µM | GI50 [42] 48.4 µM | GI50 [43] 71.6 µM | GI50 [44] 79.1 µM | GI50 [45] > 96.5 µM | GI50 [46] 35.9 µM | GI50 [47] > 100 µM | GI50 [48] > 61 µM | GI50 [49] 17.7 µM | GI50 [50] > 68 µM | GI50 [51] 66.3 µM | GI50 [52] > 100 µM | GI50 [53] > 100 µM | GI50 [54] 4.81 µM
> 100 µM: TGI [1] | TGI [2] | TGI [3] | TGI [4] | TGI [5] | TGI [7] | TGI [8] | TGI [9] | TGI [10] | TGI [11] | TGI [12] | TGI [13] | TGI [14] | TGI [15] | TGI [16] | TGI [17] | TGI [18] | TGI [19] | TGI [20] | TGI [21] | TGI [22] | TGI [23] | TGI [24] | TGI [25] | TGI [26] | TGI [27] | TGI [28] | TGI [29] | TGI [30] | TGI [31] | TGI [32] | TGI [33] | TGI [34] | TGI [35] | TGI [36] | TGI [37] | TGI [38] | TGI [39] | TGI [40] | TGI [41] | TGI [42] | TGI [43] | TGI [44] | TGI [45] | TGI [46] | TGI [47] | TGI [48] | TGI [49] | TGI [50] | TGI [51] | TGI [52] | TGI [53]
> 55.7 µM: TGI [54]
> 93.5 µM: TGI [6]
